Assay results published in patent US20220265817A1, “THERAPEUTIC COMPOSITIONS AND METHODS FOR TREATING HEPATITIS B” (priority 2017, published 2022).

Test system: HBV rcDNA in HepDE19 cells
Test: HepDE19 cell culture system, rcDNA quantitation using bDNA assay, MacSynergy II
Format: cell-based, human hepatoma cell line
Details: for AVERAGE % INHIBITION (rcDNA): 4 replicates, SIRNA-NP ng/mL by row: r8 25, r9 8.333, r10 2.778, r11 0.926, r12 0.309, r13 0; for ADDITIVE INHIBITION: expected from additive interaction, SIRNA-NP ng/mL by row: r30 25, r31 8.333, r32 2.778, r33 0.926, r34 0.309, r35 0
Experimental: In vitro combination studies were conducted using the method of Prichard and Shipman (Prichard M N, and Shipman C Jr., Antiviral Research, 1990, 14 (4-5), 181-205; and Prichard M N, et. al., MacSynergy II). HepDE19 cell culture system is a HepG2 (human hepatocarcinoma) derived cell line that supports HBV DNA replication and cccDNA formation in a tetracycline (Tet)-regulated manner and produces HBV rcDNA and a detectable reporter molecule dependent on the production and maintenance of cccDNA (Guo et al 2007. J. Virol 81:12472-12484). HepDE19 (50,000 cells/well) were plated in 96 well collagen-coated tissue-culture treated microtiter plates in DMEM/F12 medium supplemented with 10% fetal bovine serum, 1% penicillin-streptomycin and 1 μg/ml tetracycline and incubated in a humidified incubator at 37° C. and 5% CO2 overnight. Next day, the cells were switched to fresh medium without tetracycline and incubated for 4 hrs at 37° C. and 5% CO2. […] The two inhibitors were tested both singly as well as in combinations in a checkerboard fashion such that each concentration of inhibitor A was combined with each concentration of inhibitor B to determine their combination effects on inhibition of rcDNA production. Following a 7 day-incubation of cells with compound combinations, the level of rcDNA present in the inhibitor-treated wells was measured using a Quantigene 2.0 bDNA assay kit (Affymetrix, Santa Clara, Calif.) with HBV specific custom probe set and manufacturers instructions. […] The RLU data from the single compound treated cells were analyzed using XL-Fit module in Microsoft Excel to determine EC50 values using a 4-parameter curve fitting algorithm. Concurrently, the effect of compounds on cell viability was assessed using replicate plates, plated at a density of 5,000 cells/well and incubated for 4 days, to determine the ATP content as a measure of cell viability using the cell-titer glo reagent (CTG; Promega Corporation, Madison, Wis.) as per manufacturer's instructions.
In vitro combination studies were conducted using the method of Prichard and Shipman (Prichard M N, Shipman C, Jr., Antiviral Res, 14, 181-205 (1990)). The HepDE19 cell line was developed as described in Guo et al. (Guo et al., J Virol, 81, 12472-12484 (2007)). It is a human hepatoma cell line stably transfected with the HBV genome, and which can express HBV pregenomic RNA and support HBV rcDNA (relaxed circular DNA) synthesis in a tetracycline-regulated manner. HepDE19 cells were plated in 96 well tissue-culture treated microtiter plates in DMEM/F12 medium supplemented with 10% fetal bovine serum+1% penicillin-streptomycin without tetracycline and incubated in a humidified incubator at 37° C. and 5% CO2 overnight. […] The two inhibitors were tested both singly as well as in combinations in a checkerboard fashion such that each concentration of inhibitor A was combined with each concentration of inhibitor B to determine their combination effects on inhibition of rcDNA production. Following a 48 hour-incubation, the level of rcDNA present in the inhibitor-treated wells was measured using a bDNA assay (Affymetrix) with HBV specific custom probe set and manufacturers instructions. […] Concurrently, the effect of inhibitor combinations on cell viability was assessed using replicate plates that were used to determine the ATP content as a measure of cell viability using the Cell-TiterGlo reagent (Promega) as per manufacturer's instructions.
In vitro combination studies were conducted using the method of Prichard and Shipman (1990) (Prichard M N, Shipman C, Jr. 1990. A three-dimensional model to analyze drug-drug interactions. Antiviral Res 14:181-205 AND Prichard M N. 1992. MacSynergy II, University of Michigan).

Compound: C=C1[C@H](CO)[C@@H](O)C[C@@H]1n1cnc2c(=O)[nH]c(N)nc21 [Entecavir]
- AVERAGE % INHIBITION (rcDNA) (ETV 0.016 nM): −43.72%
- AVERAGE % INHIBITION (rcDNA) (ETV 0.031 nM): −50.07%
- AVERAGE % INHIBITION (rcDNA) (ETV 0.063 nM): −30.26%
- AVERAGE % INHIBITION (rcDNA) (ETV 0.125 nM): −23.47%
- AVERAGE % INHIBITION (rcDNA) (ETV 0.250 nM): −21.25%
- AVERAGE % INHIBITION (rcDNA) (ETV 1.000 nM): 41.71%
- AVERAGE % INHIBITION (rcDNA) (ETV 2.000 nM): 58.35%
- AVERAGE % INHIBITION (rcDNA) (ETV 4.000 nM): 69.99%
- EC50 (Hepatitis B virus, HepDE19, rcDNA by bDNA assay, ETV, read-out: Inhibitor B EC50): 1.78 nM
- ADDITIVE INHIBITION (ETV 0.015625 nM): −43.72%
- ADDITIVE INHIBITION (ETV 0.03125 nM): −50.07%
- ADDITIVE INHIBITION (ETV 0.0625 nM): −30.26%
- ADDITIVE INHIBITION (ETV 0.125 nM): −23.47%
- ADDITIVE INHIBITION (ETV 0.25 nM): −21.25%
- ADDITIVE INHIBITION (ETV 1 nM): 41.71%
- ADDITIVE INHIBITION (ETV 2 nM): 58.35%
- ADDITIVE INHIBITION (ETV 4 nM): 69.99%
